From US20220204491A1, “FXR (NR1H4) MODULATING COMPOUNDS” (Gilead Sciences, Inc., priority 2019, published 2022)

System: Farnesoid X receptor
Assay: In vivo pharmacodynamics in cynomolgus monkey: plasma FGF19 after oral versus IV dosing
Conditions: for FGF19 levels compared to baseline: IV administration; for FGF19 levels compared to baseline / plasma FGF19 over the dosing interval compared to baseline: cynomolgus monkey; for FGF19 AUClast: male cynomolgus monkey, plasma, 24 hour period; for Ratio AUClast to FG19/GS: FGF19 AUClast over drug AUClast; for PO/IV: PO ratio (FGF19/GS AUClast) over IV ratio; for plasma FGF19 over the dosing interval compared to baseline: oral administration
Experimental: In vivo pharmacodynamics of Formula (I) of Example 1, Comparative Example 1, and Comparative Example 2 were determined as follows.
Oral solution doses of Formula (I) (Example 1) were formulated at concentrations of 1 mg/mL in aqueous suspensions of 1% sodium laurel sulfate (SLS), 1% ethanol, and 98% water at pH 2. Oral suspension doses of Comparative Example 1, and Comparative Example 2 were formulated at concentrations of 2.5 mg/mL in 1% hydyroxypropyl methylcellulose (HPMC), 0.5% Tween 80, and 98.5% water.
Intravenous doses of compounds of Formula (I) (Example 1), Comparative Example 1, and Comparative Example 2 were formulated at concentrations of 0.5 mg/mL in a vehicle including 5% DMSO, 15% NMP, 60% PEG 300 and water with 1.1 equivalents of NaOH.
Each dosing group consisted of three to six male Cynomolgus monkeys. At dosing, the animals weighed between 2.4 and 4.4 kg.
The oral test articles were administered to the monkeys via oral gavage at 2 mL/kg or nasogastric untubation at 5 mL/kg for a dose of 5 mg/kg. The intravenous test articles were administered as an approximately 30-minute infusion via an indwelling catheter in a saphenous or cephalic vein at approximately 2 mL/kg for a dose of 1 mg/kg.
Venous blood samples were taken at specified time points after dosing from each animal. The blood samples were collected and transferred into tubes containing potassium (K2) EDTA anticoagulant.
The FGF19 ELISA assay kit from BioVendor (product number RD191107200R) was used to determine FGF19 concentrations in the collected blood samples.
Activation of the Farnesoid X receptor in the distal small intestine as well as systemically in organs such as the liver, directly causes the expression and secretion of FGF19. Plasma FGF levels were evaluated as a pharmacodynamics marker of FXR activation in male cynomolgus monkeys following administration of oral and intravenous administration of doses of Example 1, Comparative Example 1, or Comparative Example 2. The difference between levels of FGF19 following oral administration (PO) versus intravenous administration (IV) were used to compare the degree of intestinal FXR agonism (via analysis of PO data) and systemic FXR agonism (via analysis of IV data) for each compound administered. Plasma levels of drug and FGF19 were measured at various time points over a 24 hour period to generate pharmacokinetic and pharmacodynamics curves.

| SMILES | FGF19 levels compared to baseline (1 mg/kg) | FGF19 AUClast (IV infusion, 1 mg/kg) | Ratio AUClast to FG19/GS (IV, 1 mg/kg) | PO/IV | FGF19 AUClast (PO, 5 mg/kg) | Ratio AUClast to FG19/GS (PO, 5 mg/kg) | plasma FGF19 over the dosing interval compared to baseline (5 mg/kg) |
| --- | --- | --- | --- | --- | --- | --- | --- |
| O=C(O)c1ccc(N2CC(O)(c3ccc(OCc4c(-c5c(Cl)cc(F)cc5Cl)noc4C4CC4)cc3Cl)C2)nc1 [Example 1, 6-(3-(2-chloro-4-((5-cyclopropyl-3-(2,6-dichloro-4-fluorophenyl)isoxazol-4-yl)methoxy)phenyl)-3-hydroxyazetidin-1-yl)nicotinic acid] | did not cause in increase in FGF19 | 5144 ± 2199 pg·h/mL | 1.6 | 7.8 | 28153 ± 11539 pg·h/mL | 12.5 | caused increases in plasma FGF19 |
| O=C(O)c1cnc(N2CC(O)(c3ccc(OCc4c(-c5c(Cl)cc(F)cc5Cl)noc4C4CC4)cc3Cl)C2)c(F)c1 [Comparative Example 1, 6-(3-(2-chloro-4-((5-cyclopropyl-3-(2,6-dichloro-4-fluorophenyl)isoxazol-4-yl)methoxy)phenyl)-3-hydroxyazetidin-1-yl)-5-fluoronicotinic acid] | increased FGF19 levels | 22798 ± 2387 pg·h/mL | 14 | 1.37 | 32085 ± 4252 pg·h/mL | 19.2 | caused increases in plasma FGF19 |
| O=C(O)c1ccc(N2CC(O)(c3ccc(OCc4c(-c5c(Cl)cccc5Cl)noc4C4CC4)cc3Cl)C2)nc1 [Comparative Example 2] | increased FGF19 levels | 10757 ± 2551 pg·h/mL | 3.4 | 8.2 | 18193 ± 7134 pg·h/mL | 28 | caused increases in plasma FGF19 |
